# Assay results taken from paper PMC2875304 (Experimental parasitology, 2010).
# Like-named read-outs stand apart in the source and are kept apart here. No end group written: not given here.
# Columns and labels:
# [1] = system: Trypanosoma cruzi (M/HOM/AR/74/CA-I CL72); format: cell-based; conditions: for IC50: 50% reduction in untreated-culture growth after 96 hours, triplicate wells, three independent trials
# E. coli DH5α = experiment: Minimal Inhibitory Concentration; format: cell-based, Escherichia coli; conditions: single AMP treatment, result in words
# Rhodococcus rhodnii = experiment: Minimal Inhibitory Concentration; format: cell-based; conditions: single AMP treatment, result in words
substance,measurement,setting,value
"GIGKFLHSAKKFGKAFVGEIMNS [Magainin, Magainin II]",IC50,"[1]; read-out: IC50B, peptide B alone",10 µM
"GNNRPVYIPQPRPPHPRL-NH2 [Apidaecin, Apidaecin 14]",IC50,"[1]; read-out: IC50A, peptide A alone",0.7 µM
KWKLFKKIEKVGQNIRDGIIKAGPAVAVVGQATQIAK-NH2 [Cecropin A],Growth inhibition of T. cruzi,"[1]; single peptide, 96 hour treatment, 0 to 10 μM concentration range",≤ 50%
"QGYQGGYTRPFPRPPYGGGYHPVPVCTSCHRLSPLQARACCRQLGRCCDAKQTYG [Penaeidin, penaeidin]",Effect on E. coli in MIC assay,E. coli DH5α,did not have an effect
same,Effect on R. rhodnii in MIC assay,Rhodococcus rhodnii,did not have an effect
